molecular target: T1, hROMK (hKir1.1) (Homo sapiens, UniProt P48048); assay: Thallium Flux Assay; format: cell-based; conditions: HEK293 cells stably expressing hROMK (hKir1.1), FLIPR-Tetra; read-out: Thallium Flux IC50
T1 construct: expressed in transfected cells
T1 sequence (P48048 1-391): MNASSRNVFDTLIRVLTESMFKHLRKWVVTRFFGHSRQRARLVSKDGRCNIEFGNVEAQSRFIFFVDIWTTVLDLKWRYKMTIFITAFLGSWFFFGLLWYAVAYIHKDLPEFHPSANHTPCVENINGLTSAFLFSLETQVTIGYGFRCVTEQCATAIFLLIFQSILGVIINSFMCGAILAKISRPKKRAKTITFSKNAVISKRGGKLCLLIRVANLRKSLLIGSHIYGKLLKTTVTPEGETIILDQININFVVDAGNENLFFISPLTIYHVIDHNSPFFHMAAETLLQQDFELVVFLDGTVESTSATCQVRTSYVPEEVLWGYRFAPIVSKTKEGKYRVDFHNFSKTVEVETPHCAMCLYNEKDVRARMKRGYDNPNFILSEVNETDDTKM
Outline: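 HEK293 cells stably expressing hROMK, loaded with FluxOR dye 90 min at ambient temperature, then compound 30 min with 0.3 mM ouabain in probenecid buffer pH 7.4.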

SMILES | IC50 [nM]
O=C1OCCc2cc([C@@H]3CN4CCN(C(=O)Cc5cnc(-n6cnnn6)cn5)C[C@H]4CO3)ccc21 [Example 80, 6-[(3R,9aS)-8-{[5-(1H-tetrazol-1-yl)pyrazin-2-yl]acetyl}octahydropyrazino[2,1-c][1,4]oxazin-3-yl]-3,4-dihydro-1H-isochromen-1-one] | 500
N#Cc1cc([C@@H]2CN3CCN(C(=O)Cc4ccc(-n5cnnn5)cn4)C[C@H]3CO2)c(F)cc1F [Example 82, 2,4-difluoro-5-[(3R,9aS)-8-{[5-(1H-tetrazol-1-yl)pyridin-2-yl]acetyl}octahydropyrazino[2,1-c][1,4]oxazin-3-yl]benzonitrile] | 340
N#Cc1c(F)ccc([C@H]2CN3CCN(C(=O)Cc4ccc(-n5cnnn5)cn4)C[C@H]3CO2)c1F [Example 86] | 290

same assay, conditions: Thallium Flux IC50

SMILES | IC50 [nM]
N#Cc1cc([C@@H]2CN3CCN(C(=O)Cc4ccc(-n5cnnn5)nc4)C[C@H]3CO2)c(F)cc1F [Example 81, 2,4-difluoro-5-[(3R,9aS)-8-{[6-(1H-tetrazol-1-yl)pyridin-3-yl]acetyl}octahydropyrazino[2,1-c][1,4]oxazin-3-yl]benzonitrile] | 160
Cc1c([C@H]2CN3CCN(C(=O)Cc4cnc(-n5cnnn5)cn4)C[C@H]3CO2)ccc2c1COC2=O [Example 83] | 160
Cc1cc(-n2cnnn2)cnc1CC(=O)N1CCN2C[C@@H](c3ccc(F)c(C#N)c3C)OC[C@@H]2C1 [Example 84, 6-fluoro-2-methyl-3-[(3R,9aS)-8-{[3-methyl-5-(1H-tetrazol-1-vl)pvridin-2-yl]acetyl}octahydropyrazino[2,1-c][1,4]oxazin-3-yl]benzonitrile] | 230
Cc1cc(-n2cnnn2)cnc1CC(=O)N1CCN2C[C@H](c3ccc(F)c(C#N)c3C)OC[C@@H]2C1 [Example 85, 6-fluoro-2-methyl-3-[(3S,9aS)-8-{[3-methyl-5-(1H-tetrazol-1-vl)pvridin-2-yl]acetyl}octahydropyrazino[2,1-c][1,4]oxazin-3-yl]benzonitrile] | 240
N#Cc1c(F)ccc([C@H]2CN3CCN(C(=O)Cc4ccc(-n5cnnn5)nc4)C[C@@H]3CO2)c1F [Example 87, 2,6-difluoro-3-[(3S,9aR)-8-{[6-(1H-tetrazol-1-yl)pyridin-3-yl]acetyl}octahydropyrazino[2,1-c][1,4]oxazin-3-yl]benzonitrile] | 220
N#Cc1c(F)ccc([C@@H]2CN3CCN(C(=O)Cc4ccc(-n5cnnn5)nc4)C[C@@H]3CO2)c1F [Example 88, 2,6-difluoro-3-[(3R,9aR)-8-{[6-(1H-tetrazol-1-yl)pyridin-3-yl]acetyl}octahydropyrazino[2,1-c][1,4]oxazin-3-yl]benzonitrile] | 90
Cc1c(C#N)cccc1[C@H]1CN2CCN(C(=O)Cc3ccc(-n4cnnn4)nc3)C[C@H]2CO1 [Example 90, 2-methyl-3-[(3S,9aS)-8-{[6-(1H-tetrazol-1-yl)pyridin-3-yl]acetyl}octahydropyrazino[2,1-c][1,4]oxazin-3-yl]benzonitrile] | 130
Cc1c(C#N)cccc1[C@@H]1CN2CCN(C(=O)Cc3ccc(-n4cnnn4)nc3)C[C@H]2CO1 [Example 91, 2-methyl-3-[(3R,9aS)-8-{[6-(1H-tetrazol-1-yl)pyridin-3-yl]acetyl}octahydropyrazino[2,1-c][1,4]oxazin-3-yl]benzonitrile] | 60
Cc1nc(-n2cnnn2)ccc1CC(=O)N1CCN2C[C@H](c3cccc(C#N)c3C)OC[C@@H]2C1 [Example 92, 2-methyl-3-[(3S,9aS)-8-{[2-methyl-6-(1H-tetrazol-1-yl)pyridin-3-yl]acetyl}octahydropyrazino[2,1-c][1,4]oxazin-3-yl]benzonitrile] | 200
Cc1c([C@H]2CN3CCN(C(=O)Cc4cccc(-n5cnnn5)n4)C[C@H]3CO2)ccc(F)c1C#N [Example 97, 6-fluoro-2-methyl-3-[(3S,9aS)-8-{[6-(1H-tetrazol-1-yl)pyridin-2-yl]acetyl}octahydropyrazino[2,1-c][1,4]oxazin-3-yl]benzonitrile] | 250

— EP2790511B1 (Merck Sharp & Dohme Corp., priority 2011, dated 2013)
